# Experimental data taken from ChEMBL document CHEMBL1201862, “PubChem BioAssay data set” (2004).
# Active and inactive are the calls of the source.
# Columns and labels:
# [1] = HCT116 cell viability decrease, GSK3B pretreatment – CellTiter-Glo, IC50, dose response (AID 1117339); assay type: functional; conditions: HCT-116
# [2] = cytotoxicity toward HT-29 cells – cell-based, CellTiter-Glo luminescence, IC50, dose response (AID 1117330); assay type: functional
# [3] = RKO cell viability reduction, dose response, CellTiter-Glo luminescence (AID 1117322); assay type: functional
# [4] = cytotoxicity toward HCT116 cells – cell-based, CellTiter-Glo luminescence, IC50, dose response (AID 1117332); assay type: functional; conditions: HCT-116
# [5] = CellTiter-Glo luminescent dose response of DLD-1 viability loss (AID 1117352); assay type: functional
# [6] = Concentration-dependent survival of SW480 colon cancer line, luminescence detection with CellTiter-Glo, half-maximal inhibitory concentration (AID 1117338); assay type: functional
# [7] = cytotoxicity toward Colo320 cells – cell-based, CellTiter-Glo luminescence, IC50, dose response (AID 1117334); assay type: functional; conditions: COLO 320
# [8] = SNU-C1 cell viability reduction, dose response, CellTiter-Glo luminescence (AID 1117323); assay type: functional, cell-based
# [9] = half-maximal inhibitory concentration for glucagon-like peptide-1 release, STC-1 cell line, dose-response (AID 1117345); assay type: functional, cell-based
# [10] = Glucagon-like peptide 1 release potency, NCI-H716 cell line, dose-response, half-maximal inhibitory concentration (AID 1117344); assay type: functional, cell-based
# [11] = P. falciparum 3D7-ScDHODH growth inhibitors, dose response, SYBR Green, dry powder samples (AID 1159570); assay type: functional, cell-based;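 also: parasite growth measured after 72 hours of compound exposure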
# [12] = P. falciparum ATP4 D1247Y mutant growth inhibitors, dose response, NITD609-resistant line, SYBR Green, dry powder (AID 1159571); assay type: functional, cell-based;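 also: parasites synchronized at ring stage by sorbitol before testing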
# [13] = HepG2 cell cytotoxicity, dose response, cytotoxicity control, plate reader, dry powder samples (AID 1159569); assay type: functional, cell-based;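 also: inhibitor potency with signal falling toward the positive control level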
# [14] = P. falciparum Dd2 growth inhibitors, dose response, SYBR Green, cherry-picked samples (AID 1159567); assay type: functional, cell-based
# [15] = P. falciparum Dd2 growth inhibitors, dose response, SYBR Green, dry powder samples (AID 1159566); assay type: functional, cell-based;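 also: potency for growth inhibition with lower SYBR green DNA signal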
# [16] = Plasmodium falciparum Dd2 Sybr green parasite growth Measured in Cell-Based and Microorganism Combination System Using Plate Reader - 2153-01_Inhibitor_Dose_DryPowder_Activity_Set3.; assay type: functional
# [17] = A375 melanoma cell viability loss, dose response, counter-screen for MITF inhibitor project, CellTiter-Glo luminescence, dry powder, set 4 (AID 624364); assay type: functional, cell-based; conditions: A-375;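 also: A375 melanoma cells are MITF independent so this is a counter screen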
# [18] = A375 melanoma cell cytotoxicity, dose response, counter-screen for MITF inhibitor project, CellTiter-Glo luminescence, dry powder, set 2 (AID 624489); assay type: functional, cell-based; conditions: A-375;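 also: actives are compounds lowering A375 viability meaning general cytotoxicity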
# [19] = target: T1, Oxysterols receptor LXR-beta (Homo sapiens, UniProt P55055); assay type: functional, cell-based;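 also: agonist activity at LXR measured by a cell-based luminescence readout across a dose range, run as a counterscreen for daf-12 agonists; HEK293 cells with Gal4-LXR fusion and GAL4-driven luciferase reporter; potency for activation of Gal4-LXR reporter so compounds are agonists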
# T1 sequence (P55055 whole entry): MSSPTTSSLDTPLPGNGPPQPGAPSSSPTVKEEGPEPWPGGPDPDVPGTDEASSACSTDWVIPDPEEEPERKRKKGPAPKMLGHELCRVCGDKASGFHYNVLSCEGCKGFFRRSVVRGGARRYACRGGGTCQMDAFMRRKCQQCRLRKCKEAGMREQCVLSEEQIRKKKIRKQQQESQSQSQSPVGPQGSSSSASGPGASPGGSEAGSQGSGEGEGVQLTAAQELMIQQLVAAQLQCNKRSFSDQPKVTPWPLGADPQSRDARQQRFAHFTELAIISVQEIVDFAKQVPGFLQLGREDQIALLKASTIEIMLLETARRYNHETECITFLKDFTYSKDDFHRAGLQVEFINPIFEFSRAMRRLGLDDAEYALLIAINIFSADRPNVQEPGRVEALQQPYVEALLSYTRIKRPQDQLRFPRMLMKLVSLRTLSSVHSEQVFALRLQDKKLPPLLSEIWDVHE
# [20] = target: Vasopressin V1b receptor (Homo sapiens, UniProt P47901); experiment: Late-stage results from the probe development effort to identify antagonists of arginine vasopressin receptor 1a (AVPR1a): fluorescence-based cell-based dose response AVPR1b inhibition counterscreen assay.; assay type: functional
# [21] = Late-stage results from the probe development effort to identify antagonists of arginine vasopressin receptor 1a (AVPR1a): fluorescence-based cell-based dose response AVPR1a inhibition assay.; assay type: functional
# [22] = Late-stage results from the probe development effort to identify antagonists of arginine vasopressin receptor 1a (AVPR1a): fluorescence-based cell-based dose response OXTR inhibition counterscreen assay.; assay type: functional
# [23] = target: Vasopressin V2 receptor (Homo sapiens, UniProt P30518); experiment: Late-stage results from the probe development effort to identify antagonists of arginine vasopressin receptor 1a (AVPR1a): fluorescence-based cell-based dose response AVPR2 inhibition counterscreen assay.; assay type: functional
# [24] = cells; assay type: functional, cell-based
# [25] = HepG2 cell cytotoxicity, dose response, cytotoxicity control, ATP luminescence, cherry-pick, activator set 2 (AID 1053143); assay type: functional, cell-based
# [26] = cells; assay type: functional, cell-based; remark: listed apart in the source
# [27] = target: Transthyretin (Homo sapiens, UniProt P02766); experiment: Luminescence-based cell-based high throughput dose response assay to identify activators of Transthyretin (TTR) transcription.; assay type: functional
# [28] = cytotoxicity in A549 cells, dose response, cytotoxicity control, cell-based, CellTiter-Glo luminescence, cherry-pick (AID 743484); assay type: functional
# [29] = target: Metabotropic glutamate receptor 5 (Rattus norvegicus, UniProt P31424); experiment: Identification of a glycine sulfonamide based non-MPEP site positive allosteric potentiator (PAM) of mGlu5 (calcium_assay).; assay type: functional
# [30] = target: E3 ubiquitin-protein ligase UHRF1 (Homo sapiens, UniProt Q96T88); experiment: Counterscreen for inhibitors of 5-meCpG-binding domain protein 2 (MBD2): TRFRET-based biochemical high throughput dose response assay to identify inhibitors of binding of ubiquitin-like with PHD and ring finger domains 1 (UHRF1) to methylated oligonucleotide.
# [31] = HeLa 4N DNA content increase, dose response, cell-based, IC50 (AID 1117351); assay type: functional
# [32] = cells; assay type: functional, cell-based; conditions: INS-1E
# [33] = Dose-response inhibition of insulin secretion in a rat insulinoma line at 5 mM glucose (AID 1117331); assay type: functional, cell-based; conditions: INS-1E
# [34] = HeLa 2N DNA content increase, dose response, cell-based, IC50 (AID 1117349); assay type: functional
# [35] = HepG2 cell cytotoxicity, dose response, cytotoxicity control, cherry-picked samples (AID 1159577); assay type: functional, cell-based
# [36] = target: Paired box protein Pax-8 (Homo sapiens, UniProt Q06710); experiment: inhibitors of PAX8-driven TPO luciferase reporter, dose response, RMG-I cells, cherry-pick (AID 687027); assay type: functional, cell-based;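 also: luciferase reporter driven by Pax8 target thyroperoxidase promoter measured by SteadyGlo luminescence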
# [37] = inhibitors of PGC1a acetylation in cells, dose response, cell-based, cherry-picked samples (AID 720514); assay type: functional;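 also: potency may reflect raised or lowered acetylation signal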
# [38] = target: NAD-dependent protein deacylase sirtuin-5, mitochondrial (Homo sapiens, UniProt Q9NXA8); experiment: SIRT5 deacylase inhibitors, dose response, biochemical, fluorescence imaging, cherry-pick, set 6 (AID 720597)
# [39] = Vero cell cytotoxicity, dose response, cytotoxicity control for Vif-APOBEC3G degradation inhibitor project, Vero cells (AID 1117358); assay type: functional; conditions: Human immunodeficiency virus 1, Vero
# [40] = cytotoxicity in OVCAR8 ovarian cancer cells, dose response, PAX8 project, cell-based, plate reader, dry powder samples (AID 743197); assay type: functional; conditions: OVCAR-8
# [41] = HepG2 cell cytotoxicity, dose response, cytotoxicity control, ATP luminescence, cherry-pick, set 6 (AID 1053125); assay type: functional, cell-based
# [42] = target: CAAX prenyl protease 2 (Saccharomyces cerevisiae S288c, UniProt Q03530); assay type: biochemical
# [43] = cells; conditions: HEK293
# [44] = cells; conditions: A549
# [45] = Luminescence Cell-Based Dose Retest to Confirm Inhibitors of Cancer Stem Cells. [Related pubchem assays (depositor defined):AID2717, AID2721]; assay type: functional; conditions: Homo sapiens
# [46] = Late stage assay provider results from the probe development effort to identify selective inhibitors of heat shock protein 90 (HSP90): Absorbance-based cell proliferation assay in SKBR3 cells.; assay type: functional; conditions: SK-BR-3
# [47] = Late stage assay provider results from the probe development effort to identify selective inhibitors of heat shock protein 90 (HSP90): Absorbance-based cell proliferation assay in MCF7 cells.; assay type: functional
# [48] = target: Muscarinic acetylcholine receptor M5 (Homo sapiens, UniProt P08912); experiment: M5 receptor positive allosteric modulators, dose response, cell-based, concentration-response curve (AID 651878); assay type: functional
# Sequence of Muscarinic acetylcholine receptor M5 (P08912 whole entry): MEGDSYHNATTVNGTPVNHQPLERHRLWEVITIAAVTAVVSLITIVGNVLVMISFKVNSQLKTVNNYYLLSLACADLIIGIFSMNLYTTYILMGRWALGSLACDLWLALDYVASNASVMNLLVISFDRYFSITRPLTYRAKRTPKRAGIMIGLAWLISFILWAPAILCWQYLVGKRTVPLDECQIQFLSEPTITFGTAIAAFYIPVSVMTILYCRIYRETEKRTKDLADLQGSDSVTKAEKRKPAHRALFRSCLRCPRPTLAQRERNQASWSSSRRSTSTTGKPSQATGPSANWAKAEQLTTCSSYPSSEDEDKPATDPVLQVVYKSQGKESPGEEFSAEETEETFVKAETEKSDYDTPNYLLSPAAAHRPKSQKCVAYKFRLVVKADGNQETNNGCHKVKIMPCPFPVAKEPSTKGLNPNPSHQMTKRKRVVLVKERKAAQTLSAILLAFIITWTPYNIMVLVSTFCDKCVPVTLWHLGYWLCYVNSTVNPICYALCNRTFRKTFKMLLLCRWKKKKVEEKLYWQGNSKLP
# Sequence of Paired box protein Pax-8 (Q06710 whole entry): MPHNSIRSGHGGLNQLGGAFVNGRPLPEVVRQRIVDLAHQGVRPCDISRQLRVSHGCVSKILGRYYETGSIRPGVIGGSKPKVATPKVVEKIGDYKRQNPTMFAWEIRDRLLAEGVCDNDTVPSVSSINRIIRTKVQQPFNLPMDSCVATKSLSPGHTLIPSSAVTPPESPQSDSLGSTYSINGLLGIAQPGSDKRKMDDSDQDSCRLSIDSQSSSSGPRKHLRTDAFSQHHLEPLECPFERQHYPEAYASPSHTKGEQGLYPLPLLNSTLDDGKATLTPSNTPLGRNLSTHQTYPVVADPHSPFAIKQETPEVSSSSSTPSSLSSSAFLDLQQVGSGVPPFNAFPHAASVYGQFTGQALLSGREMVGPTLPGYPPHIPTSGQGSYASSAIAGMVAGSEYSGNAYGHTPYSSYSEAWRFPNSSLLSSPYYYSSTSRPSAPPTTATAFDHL
# Sequence of Metabotropic glutamate receptor 5 (P31424 whole entry, the tested form may be a part): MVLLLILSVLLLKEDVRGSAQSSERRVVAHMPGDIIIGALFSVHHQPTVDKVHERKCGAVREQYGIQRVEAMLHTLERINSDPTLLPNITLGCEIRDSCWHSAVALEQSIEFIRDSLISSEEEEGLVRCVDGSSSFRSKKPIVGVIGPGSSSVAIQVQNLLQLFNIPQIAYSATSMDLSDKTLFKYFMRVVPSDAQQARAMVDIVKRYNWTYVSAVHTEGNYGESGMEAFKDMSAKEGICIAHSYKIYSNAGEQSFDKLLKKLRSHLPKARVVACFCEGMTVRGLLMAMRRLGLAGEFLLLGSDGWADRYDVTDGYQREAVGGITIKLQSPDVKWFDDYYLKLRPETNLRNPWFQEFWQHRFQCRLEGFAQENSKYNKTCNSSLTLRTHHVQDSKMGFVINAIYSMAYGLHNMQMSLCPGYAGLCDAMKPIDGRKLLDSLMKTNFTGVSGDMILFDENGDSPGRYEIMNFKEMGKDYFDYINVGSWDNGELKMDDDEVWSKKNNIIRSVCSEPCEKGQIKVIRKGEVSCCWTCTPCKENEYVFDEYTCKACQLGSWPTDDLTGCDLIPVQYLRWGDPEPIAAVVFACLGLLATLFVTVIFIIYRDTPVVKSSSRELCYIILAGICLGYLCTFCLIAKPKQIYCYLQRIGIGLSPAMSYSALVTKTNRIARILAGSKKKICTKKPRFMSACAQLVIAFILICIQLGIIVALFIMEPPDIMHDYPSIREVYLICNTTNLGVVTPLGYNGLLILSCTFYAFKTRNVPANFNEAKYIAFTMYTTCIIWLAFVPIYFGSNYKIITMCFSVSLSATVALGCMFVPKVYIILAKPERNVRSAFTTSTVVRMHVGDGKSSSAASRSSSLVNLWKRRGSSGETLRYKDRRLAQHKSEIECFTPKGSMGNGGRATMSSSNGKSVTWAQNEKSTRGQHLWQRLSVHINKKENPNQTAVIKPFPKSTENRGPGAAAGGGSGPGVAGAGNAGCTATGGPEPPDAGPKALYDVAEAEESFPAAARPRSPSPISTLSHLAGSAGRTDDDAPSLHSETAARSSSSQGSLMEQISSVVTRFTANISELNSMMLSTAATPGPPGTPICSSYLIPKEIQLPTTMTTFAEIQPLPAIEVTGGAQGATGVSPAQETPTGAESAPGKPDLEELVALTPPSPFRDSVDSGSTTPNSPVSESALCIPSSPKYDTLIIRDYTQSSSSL
# Sequence of CAAX prenyl protease 2 (Q03530 whole entry): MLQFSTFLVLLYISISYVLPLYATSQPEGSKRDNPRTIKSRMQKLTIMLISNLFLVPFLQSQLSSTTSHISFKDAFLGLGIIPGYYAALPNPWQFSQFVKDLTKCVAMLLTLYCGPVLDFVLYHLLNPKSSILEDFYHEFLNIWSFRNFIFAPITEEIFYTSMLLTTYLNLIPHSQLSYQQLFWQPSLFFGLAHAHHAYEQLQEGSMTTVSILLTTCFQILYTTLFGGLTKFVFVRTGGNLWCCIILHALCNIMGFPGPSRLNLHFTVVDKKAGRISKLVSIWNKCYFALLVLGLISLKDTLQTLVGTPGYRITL
# Sequence of Vasopressin V2 receptor (P30518 whole entry): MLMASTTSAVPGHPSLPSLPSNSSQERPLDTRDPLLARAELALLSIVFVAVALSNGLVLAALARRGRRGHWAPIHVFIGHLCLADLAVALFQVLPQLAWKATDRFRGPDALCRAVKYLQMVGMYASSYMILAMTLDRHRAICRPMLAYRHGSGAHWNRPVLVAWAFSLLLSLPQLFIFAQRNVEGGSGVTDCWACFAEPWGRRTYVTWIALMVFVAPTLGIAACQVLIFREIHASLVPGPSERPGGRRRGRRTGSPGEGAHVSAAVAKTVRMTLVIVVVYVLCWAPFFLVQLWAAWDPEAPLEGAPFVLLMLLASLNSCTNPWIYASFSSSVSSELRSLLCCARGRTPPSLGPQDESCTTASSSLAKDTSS
# Sequence of NAD-dependent protein deacylase sirtuin-5, mitochondrial (Q9NXA8 whole entry): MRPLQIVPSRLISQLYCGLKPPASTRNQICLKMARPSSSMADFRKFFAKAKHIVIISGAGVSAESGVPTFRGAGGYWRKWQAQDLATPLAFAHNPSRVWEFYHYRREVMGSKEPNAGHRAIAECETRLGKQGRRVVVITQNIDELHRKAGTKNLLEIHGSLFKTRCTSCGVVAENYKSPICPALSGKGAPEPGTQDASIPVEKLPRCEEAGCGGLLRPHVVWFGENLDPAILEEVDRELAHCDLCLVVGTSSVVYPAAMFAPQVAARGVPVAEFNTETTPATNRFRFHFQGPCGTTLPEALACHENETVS
# Sequence of Vasopressin V1b receptor (P47901 whole entry): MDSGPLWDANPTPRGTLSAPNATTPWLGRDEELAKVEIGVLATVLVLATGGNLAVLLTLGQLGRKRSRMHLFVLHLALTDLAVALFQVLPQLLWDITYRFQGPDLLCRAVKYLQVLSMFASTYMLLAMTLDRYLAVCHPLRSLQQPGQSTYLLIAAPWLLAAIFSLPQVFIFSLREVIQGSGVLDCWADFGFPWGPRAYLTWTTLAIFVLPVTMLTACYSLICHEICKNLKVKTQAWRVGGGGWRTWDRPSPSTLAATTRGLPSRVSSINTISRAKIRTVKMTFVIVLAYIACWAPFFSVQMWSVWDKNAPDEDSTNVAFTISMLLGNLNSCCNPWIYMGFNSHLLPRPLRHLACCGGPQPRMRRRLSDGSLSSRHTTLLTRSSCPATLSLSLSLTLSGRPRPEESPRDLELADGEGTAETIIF
# Sequence of E3 ubiquitin-protein ligase UHRF1 (Q96T88 whole entry, the tested form may be a part): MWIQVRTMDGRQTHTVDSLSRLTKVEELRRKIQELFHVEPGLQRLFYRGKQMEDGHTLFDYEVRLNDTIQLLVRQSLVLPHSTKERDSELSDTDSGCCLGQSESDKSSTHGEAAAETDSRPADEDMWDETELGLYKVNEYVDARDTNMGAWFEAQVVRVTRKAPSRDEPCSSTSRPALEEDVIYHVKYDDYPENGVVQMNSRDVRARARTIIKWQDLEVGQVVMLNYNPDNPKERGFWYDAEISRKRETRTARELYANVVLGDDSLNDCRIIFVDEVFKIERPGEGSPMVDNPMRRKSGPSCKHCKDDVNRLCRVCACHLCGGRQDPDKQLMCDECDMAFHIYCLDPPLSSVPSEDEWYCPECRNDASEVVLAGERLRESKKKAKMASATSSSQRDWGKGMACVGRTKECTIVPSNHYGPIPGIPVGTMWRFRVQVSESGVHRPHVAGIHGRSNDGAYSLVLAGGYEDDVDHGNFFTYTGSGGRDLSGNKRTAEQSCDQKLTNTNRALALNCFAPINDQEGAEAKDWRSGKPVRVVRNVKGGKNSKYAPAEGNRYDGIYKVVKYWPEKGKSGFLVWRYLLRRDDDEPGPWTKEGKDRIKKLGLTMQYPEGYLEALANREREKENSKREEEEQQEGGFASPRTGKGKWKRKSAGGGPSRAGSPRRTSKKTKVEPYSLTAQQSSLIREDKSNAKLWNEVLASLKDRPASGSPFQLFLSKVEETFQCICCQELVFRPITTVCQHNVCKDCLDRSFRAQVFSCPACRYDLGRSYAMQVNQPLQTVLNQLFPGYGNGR
compound,measurement,setting,value
Clc1ccc(C(Cn2ccnc2)OCc2ccsc2Cl)c(Cl)c1 (stereo unspecified) [TIOCONAZOLE],IC50,[1],2.84 µM (active)
same,IC50,[2],> 20 µM (inactive)
same,IC50,[3],5.25 µM (inactive)
same,IC50,[4],4.07 µM (active)
same,IC50,[5],> 20 µM (inactive)
same,IC50,[6],> 20 µM (inactive)
same,IC50,[7],5.23 µM (inactive)
same,IC50,[8],2.18 µM (active)
O=C(O)c1cc(/N=N/c2ccc(O)c(C(=O)O)c2)ccc1O [OLSALAZINE],IC50,[9],9.54 µM (inactive)
same,IC50,[10],> 40 µM (inactive)
CCCNC(=O)N1[C@H](C#N)[C@H](c2ccc(-c3cccc(OC)c3)cc2)[C@H]1CO,AC50,[11],10.4 µM (active)
same,AC50,[12],0.0278 µM (active)
same,AC50,[13],> 100 µM (inactive)
same,AC50,[14],< 0.3 µM (active)
same,AC50,[15],0.0154 µM (active)
same,AC50,[16],0.0751 µM (active)
CCN(CC)CCCNC1=C(Nc2ccccc2)C(=O)c2ccccc2C1=O,AC50,[17],65 µM (active)
same,AC50,[18],31 µM (active)
N#Cc1c(N)nc(N)nc1Nc1ccc(Br)cc1,EC50,[19],> 67.4 µM (inactive)
COc1ccc(N(CC2CC2)C(=O)N2CCN(c3cc(Cl)ccc3C)CC2)cc1,IC50,[20],16.6 µM (inactive)
same,IC50,[21],0.0363 µM (active)
same,IC50,[22],0.25 µM (active)
same,IC50,[23],11.3 µM (inactive)
Nc1ccccc1NC(=O)c1ccccc1,EC50,[24],> 350 µM (not active)
same,AC50,[25],17.5 µM (active)
same,EC50,[26],13.8 µM (active)
Cc1cccc(N(C)c2ncnc3onc(-c4ccc(F)cc4)c23)c1C,EC50,[27],> 167 µM (inactive)
Cc1cc(C)c(C#N)c(N2CCN(c3ccccc3)CC2)n1,AC50,[28],> 52 µM (inactive)
CS(=O)(=O)N(CC(=O)NC1CCC1)c1cc(C(F)(F)F)ccc1Cl,EC50,[29],1.39 µM
COc1ccc2c(=O)c3c(=O)n(-c4ccccc4)c(-c4ccc(C)cc4)nc3oc2c1,IC50,[30],> 0.541 µM (active)
CN(C)CCOC(c1ccccc1)c1ccc(Br)cc1 (stereo unspecified) [BROMODIPHENHYDRAMINE],IC50,[31],> 10 µM (inactive)
same,IC50,[32],> 33.3 µM (inactive)
same,IC50,[3],> 20 µM (inactive)
same,IC50,[4],> 20 µM (inactive)
same,IC50,[33],2.77 µM (active)
same,IC50,[5],> 20 µM (inactive)
same,IC50,[6],> 20 µM (inactive)
same,IC50,[7],> 20 µM (inactive)
same,IC50,[8],3.1 µM (active)
same,IC50,[34],> 10 µM (inactive)
O=C(Nc1ccc(C(F)(F)F)cc1)N1C[C@@H]2N[C@H](C1)[C@@H]2c1ccc(-c2cccc(F)c2)cc1,AC50,[35],3.52 µM (active)
same,AC50,[14],3.45 µM (active)
same,AC50,[36],22.4 µM (active)
same,AC50,[37],4.04 µM (active)
C[C@H](CO)N1C[C@H](C)[C@@H](CN(C)C(=O)C2CCCCC2)OCCCC[C@H](C)Oc2ccc(NC(=O)Nc3ccc(F)cc3)cc2C1=O,AC50,[38],> 30 µM (inactive)
CC1CCCCN1C(=O)c1ccc(S(=O)(=O)N2CCCCC2C)cc1 (stereo unspecified),CC50,[39],> 40 µM (active)
C[C@H](CO)N1C[C@H](C)[C@@H](CN(C)CC2CCCCC2)Oc2c(NC(=O)CCCCCC(=O)Nc3ccccc3N)cccc2C1=O,AC50,[40],46.8 µM (active)
same,AC50,[36],11.1 µM (active)
CCCCCCSc1cc(-c2nc3cc(C)ccn3c2NCCCC)ccc1OC,AC50,[41],30.3 µM (active)
same,AC50,[42],19.8 µM (active)
same,AC50,[43],45.7 µM (active)
same,AC50,[44],45.6 µM (active)
same,AC50,[45],7.54 µM (active)
CC(NC(=O)c1coc(=O)c(Br)c1)C1C2CCC3CC(C2)CC31 (stereo unspecified),IC50,[46],8.3 µM (active)
same,IC50,[47],1.8 µM (active)
O=C1C(=O)N(CCOc2ccc(C(F)(F)F)cc2)c2ccc(OC(F)(F)F)cc21,EC50,[48],0.36 µM (active)
